The numbers were not newly measured in patent publication US11147946B2, “Venous access catheters and methods for portal venous system catheterization” (THE REGENTS OF THE UNIVERSITY OF COLORADO, A BODY CORPORATE, priority 2014, dated 2021), which cites them from elsewhere.

Some targets named below: SSTR2 (Homo sapiens, UniProt P30874); SSTR3 (Homo sapiens, UniProt P32745); SSTR4 (Homo sapiens, UniProt P31391); SSTR1 (Homo sapiens, UniProt P30872); SSTR5 (Homo sapiens, UniProt P35346).
Another series concerns portal hypertension. To be noted: compared with propranolol, cirrhosis.
Series [1] deals with (Homo sapiens, UniProt P08069).
Series [2] has as its system human breast (MCF7) carcinoma cell line.
Series [3] relates to human pancreas (BxPC-3) carcinoma cell line.
Series [4] concerns human colon (Colo205) carcinoma cell line.
A further series concerns human tumour. To be noted: in vivo xenograft and orthotopic models.

Numbered stars: 1 amine (or outer) side, 2 acyl side, 3 side chain; on linkers, the order of the positions; unused ones are H or OH. Square brackets hold non-standard residues; d marks the D form. Side chains are listed from the residue outwards. Peptide text beside a SMILES is read from it. * marks the point of attachment. Ethylenediamine = C(CN[*:2])N[*:1]; Hyp = O=C(O)[C@@H]1C[C@@H](O)CN1; Phg = N[C@H](C(=O)O)c1ccccc1; CO = O=C([*:1])[*:2]; Bn = c1ccc(C*)cc1

Sequence of SSTR2 (P30874 whole entry): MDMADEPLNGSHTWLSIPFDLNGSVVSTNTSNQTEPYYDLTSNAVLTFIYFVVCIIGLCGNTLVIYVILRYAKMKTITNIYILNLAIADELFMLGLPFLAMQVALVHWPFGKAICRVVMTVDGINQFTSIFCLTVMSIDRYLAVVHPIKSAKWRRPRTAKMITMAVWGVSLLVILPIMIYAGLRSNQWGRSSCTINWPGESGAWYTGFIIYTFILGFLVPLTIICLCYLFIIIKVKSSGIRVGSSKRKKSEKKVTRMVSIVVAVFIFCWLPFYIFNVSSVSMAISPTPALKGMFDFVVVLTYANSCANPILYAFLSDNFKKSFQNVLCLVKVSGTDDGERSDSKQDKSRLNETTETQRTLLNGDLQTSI
Sequence of SSTR3 (P32745 whole entry): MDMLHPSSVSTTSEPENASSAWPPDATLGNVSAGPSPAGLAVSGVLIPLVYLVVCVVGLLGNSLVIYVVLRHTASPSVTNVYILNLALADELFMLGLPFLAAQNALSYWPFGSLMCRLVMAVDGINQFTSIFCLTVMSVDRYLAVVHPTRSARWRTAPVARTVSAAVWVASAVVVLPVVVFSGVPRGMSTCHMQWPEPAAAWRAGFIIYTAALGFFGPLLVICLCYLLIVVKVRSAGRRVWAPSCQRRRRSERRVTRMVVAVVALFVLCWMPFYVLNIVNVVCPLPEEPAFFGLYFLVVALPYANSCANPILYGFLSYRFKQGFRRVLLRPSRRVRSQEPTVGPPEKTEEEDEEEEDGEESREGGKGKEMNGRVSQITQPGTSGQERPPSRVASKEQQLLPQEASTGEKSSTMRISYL
Sequence of SSTR1 (P30872 whole entry): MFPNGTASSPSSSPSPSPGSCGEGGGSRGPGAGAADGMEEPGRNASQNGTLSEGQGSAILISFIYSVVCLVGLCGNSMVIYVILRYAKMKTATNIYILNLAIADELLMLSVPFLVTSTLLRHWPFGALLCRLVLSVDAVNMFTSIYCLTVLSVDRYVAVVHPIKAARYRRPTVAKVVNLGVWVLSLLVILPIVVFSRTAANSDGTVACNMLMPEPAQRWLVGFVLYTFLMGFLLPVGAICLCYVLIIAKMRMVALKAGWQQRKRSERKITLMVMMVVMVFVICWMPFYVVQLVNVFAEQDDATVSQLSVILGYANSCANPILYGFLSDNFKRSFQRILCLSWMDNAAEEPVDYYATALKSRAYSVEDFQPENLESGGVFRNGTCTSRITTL
Sequence of SSTR4 (P31391 whole entry): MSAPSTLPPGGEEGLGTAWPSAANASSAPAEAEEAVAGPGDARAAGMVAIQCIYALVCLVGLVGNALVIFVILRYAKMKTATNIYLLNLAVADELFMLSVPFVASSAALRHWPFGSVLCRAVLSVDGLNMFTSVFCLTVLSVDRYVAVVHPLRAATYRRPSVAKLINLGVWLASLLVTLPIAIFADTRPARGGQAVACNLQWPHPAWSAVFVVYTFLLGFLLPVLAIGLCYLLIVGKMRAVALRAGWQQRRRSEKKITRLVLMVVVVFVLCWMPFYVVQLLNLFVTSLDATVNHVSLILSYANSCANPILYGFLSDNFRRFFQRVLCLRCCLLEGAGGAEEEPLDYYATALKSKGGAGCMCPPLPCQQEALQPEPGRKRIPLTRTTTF
Sequence of SSTR5 (P35346 whole entry): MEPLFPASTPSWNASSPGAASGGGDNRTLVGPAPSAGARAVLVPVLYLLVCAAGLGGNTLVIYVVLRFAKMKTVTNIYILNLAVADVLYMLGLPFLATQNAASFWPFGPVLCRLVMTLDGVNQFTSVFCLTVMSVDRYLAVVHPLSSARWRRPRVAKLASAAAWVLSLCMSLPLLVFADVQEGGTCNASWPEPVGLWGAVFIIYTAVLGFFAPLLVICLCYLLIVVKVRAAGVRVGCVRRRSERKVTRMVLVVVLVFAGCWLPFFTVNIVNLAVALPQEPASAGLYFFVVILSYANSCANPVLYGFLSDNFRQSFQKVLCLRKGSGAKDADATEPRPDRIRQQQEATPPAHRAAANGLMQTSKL
Sequence of (Homo sapiens, UniProt P08069) (P08069 31-736 limits assumed): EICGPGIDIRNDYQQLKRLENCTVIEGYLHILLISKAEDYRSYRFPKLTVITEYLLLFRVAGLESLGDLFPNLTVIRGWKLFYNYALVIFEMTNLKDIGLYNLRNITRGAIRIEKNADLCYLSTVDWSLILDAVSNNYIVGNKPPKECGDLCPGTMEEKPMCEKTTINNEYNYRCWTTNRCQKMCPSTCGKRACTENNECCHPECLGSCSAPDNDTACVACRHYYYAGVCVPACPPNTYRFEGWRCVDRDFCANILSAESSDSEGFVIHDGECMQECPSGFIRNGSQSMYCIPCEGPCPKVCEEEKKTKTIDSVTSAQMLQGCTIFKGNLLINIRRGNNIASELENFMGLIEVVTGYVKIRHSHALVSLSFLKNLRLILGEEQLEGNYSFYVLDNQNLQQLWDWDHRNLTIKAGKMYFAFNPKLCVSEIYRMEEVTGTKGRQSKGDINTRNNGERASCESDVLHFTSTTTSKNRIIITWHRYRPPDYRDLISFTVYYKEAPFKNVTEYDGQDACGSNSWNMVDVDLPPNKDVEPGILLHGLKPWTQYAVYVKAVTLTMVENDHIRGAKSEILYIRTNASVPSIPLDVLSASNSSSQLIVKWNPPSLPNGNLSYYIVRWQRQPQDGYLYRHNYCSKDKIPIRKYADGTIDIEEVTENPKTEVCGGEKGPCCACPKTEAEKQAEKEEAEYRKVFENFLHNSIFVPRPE
Sequence of (Homo sapiens, UniProt P08069) (P08069 741-1367 limits assumed): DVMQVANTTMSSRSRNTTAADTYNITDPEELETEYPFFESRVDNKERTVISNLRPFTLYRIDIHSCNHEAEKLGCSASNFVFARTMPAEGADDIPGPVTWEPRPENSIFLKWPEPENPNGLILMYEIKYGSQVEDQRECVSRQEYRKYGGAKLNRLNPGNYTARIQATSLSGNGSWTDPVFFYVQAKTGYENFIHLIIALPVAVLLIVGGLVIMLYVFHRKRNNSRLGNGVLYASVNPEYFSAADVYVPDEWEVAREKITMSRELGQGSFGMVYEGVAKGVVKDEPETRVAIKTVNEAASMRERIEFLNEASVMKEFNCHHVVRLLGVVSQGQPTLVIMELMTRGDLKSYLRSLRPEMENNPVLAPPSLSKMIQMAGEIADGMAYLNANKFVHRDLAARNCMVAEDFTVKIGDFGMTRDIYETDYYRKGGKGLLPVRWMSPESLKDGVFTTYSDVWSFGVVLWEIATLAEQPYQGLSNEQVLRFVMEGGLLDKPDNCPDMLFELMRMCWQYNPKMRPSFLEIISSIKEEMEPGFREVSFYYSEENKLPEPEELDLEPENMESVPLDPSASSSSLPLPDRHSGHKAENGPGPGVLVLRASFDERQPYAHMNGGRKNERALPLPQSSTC

As for `CC(C)[C@@H]1NC(=O)[C@H](CCCCN)NC(=O)[C@@H](Cc2c[nH]c3ccccc23)NC(=O)[C@H](Cc2ccc(O)cc2)NC(=O)[C@@H](NC(=O)[C@H](N)Cc2ccc3ccccc3c2)CSSC[C@@H](C(=O)N[C@H](C(N)=O)[C@@H](C)O)NC1=O` [lanreotide], at SSTR2, the “binding affinity to SSTR2” value is “high affinity”. The “binding affinity to SSTR3” value at SSTR3 is “reduced or no binding”. For the same compound, the “binding affinity to SSTR4” value on SSTR4 is “reduced or no binding”. Also, the “binding affinity to SSTR1” value at SSTR1 is “reduced or no binding”.
For the compound `COc1ccccc1OCCNCC(O)COc1cccc2[nH]c3ccccc3c12` (stereo not shown) [carvedilol], in the series with portal hypertension, the “reduction of portal hypertension (PH)” value is on record as “more effective than propranolol”.
For `C[C@@H](O)[C@@H]1NC(=O)[C@H](CCCCN)NC(=O)[C@@H](Cc2c[nH]c3ccccc23)NC(=O)[C@H](Cc2ccccc2)NC(=O)[C@@H](NC(=O)[C@H](N)Cc2ccccc2)CSSC[C@@H](C(=O)N[C@H](CO)[C@@H](C)O)NC1=O` [octreotide], the “binding affinity to SSTR2” value on SSTR2 is “high affinity”. At SSTR3, the “binding affinity to SSTR3” value was “reduced affinity”.
In the case of “IMC-A12: fully human monoclonal IgG1 antibody, anti-IGF1R”, the binding affinity result in [1] is on record as “high affinity”. Further, the cell apoptosis entry in series [2], in series [3] and in [4] was “induces cell apoptosis” throughout. Moreover, the cell proliferation result in series [2], in series [3] and in series [4] was “inhibits cell proliferation” each time. In addition, the antitumour activity result in the series with human tumour is on record as “shown activity against a human tumour”.
`NCCCC[C@@H]1NC(=O)[C@@H](Cc2c[nH]c3ccccc23)NC(=O)[C@H](c2ccccc2)NC(=O)[C@@H]2C[C@@H](OC(=O)NCCN)CN2C(=O)[C@H](Cc2ccccc2)NC(=O)[C@H](Cc2ccc(OCc3ccccc3)cc2)NC1=O` [pasireotide] (cyclo([Hyp]([CO-Ethylenediamine])[Phg][dW]KY(Bn)F)): the “binding affinity to SSTR2” value on SSTR2 was “decreased affinity”. Moreover, at SSTR3, the “binding affinity to SSTR3” value is “decreased affinity”. In addition, on SSTR5, the “binding affinity to SSTR5” value was “high affinity”. The “binding affinity to SSTR1” value at SSTR1 is on record as “decreased affinity”.
